{"source": "patent US20240148671A1", "about": "“METHODS FOR IMPROVING POULTRY HEALTH” (CORNELL UNIVERSITY, priority 2021, published 2024)", "assay_type_in_all_cases": "in vivo, Gallus gallus", "key": {"IL-1β": {"system": "IL-1β", "test": "Gene expression (RT-PCR), IL-1β", "conditions": "at hatch; b175, b210: compared with the 5% inulin control group; b192: comparator not stated; p<0.05", "experimental": "(§1) The pure resveratrol and pterostilbene were individually diluted in 18 MΩ H2O. The intra-amniotic administration followed the methodology previously described. On the 17th day of embryonic development, the eggs with viable embryos (n=60) were randomly allocated into 6 groups (n=10) with a similar weight frequency distribution. For the intra-amniotic treatment, 1 mL of solution per egg was injected into the amniotic fluid (via candling) with the aid of a 21-gauge needle. […]\n(§2) The RNA was isolated as described previously (RNeasy Mini Kit, Qiagen Inc., Valencia, CA, USA), and 30 mg of the duodenal tissue or liver tissue (n =8) was used to extract the total RNA. […] Finally, the RNA was eluted in 50 μL of RNase-free water and quantified by absorbance at 260 and 280 nm.\n(§3) RT-PCR was conducted as described. […] The cDNA content was assessed by absorbance at 260 and 280 nm, with an extinction coefficient of 33 (single-stranded DNA). Genomic DNA contamination was evaluated via a real-time RT-PCR assay for the reference gene samples [17,18,30]. […]\n(§4) The procedures were performed as previously published. […] The optimal MgCl2 concentration achieved, for each reaction, an amplification plot (lowest cycle product, Cp), the uppermost fluorescence intensity and the steepest amplification slope. […]"}, "[1]": {"system": "duodenal tissue (villi, crypts, goblet cells)", "test": "Morphometric examination of duodenal tissue", "experimental": "(§5) The pure resveratrol and pterostilbene were individually diluted in 18 MΩ H2O. The intra-amniotic administration followed the methodology previously described. On the 17th day of embryonic development, the eggs with viable embryos (n=60) were randomly allocated into 6 groups (n=10) with a similar weight frequency distribution. For the intra-amniotic treatment, 1 mL of solution per egg was injected into the amniotic fluid (via candling) with the aid of a 21-gauge needle. After the procedure, the injection sites were sealed with cellophane tape, and the eggs were distributed into six groups: (1) no injection; (2) 18 MΩ H2O; (3) 5% inulin; (4) 5% resveratrol; (5) 5% pterostilbene; and (6) synergistic: 4.75% resveratrol and 0.25% pterostilbene. […] The eggs were equally distributed in each incubator location to reduce possible allocation bias. Upon hatching (21 days), the hatchlings were euthanized by CO2 exposure, and the blood, liver, heart, pectoral muscle, small intestine and cecum were obtained.\nVillus epithelium analysis was conducted as previously published. The duodenal samples were soaked in buffered formaldehyde (4% (v/v)), dehydrated, cleared and embedded in paraffin. Numerous sections were cut with a thickness of 5 μm and put on slides. The sections were deparaffinized in xylene, after which they were rehydrated in a series of graded alcohol. Finally, the slides were stained with Alcian Blue-periodic acid-Schiff and investigated under a light microscopy. The variables were assessed (light microscope, EPIX XCAP software, standard version, Olympus, Waltham, MA, USA) for the following: villus length, villus diameter, depth of crypts, goblet cell diameter, crypt goblet cell number and villus goblet cells type number (acidic, neutral or mixed). Four segments for each biological sample and five biological samples per treatment group were examined. The goblet cells were enumerated at 10 villi/sample, and the means were calculated for statistical analysis."}, "AP (Aminopeptidase)": {"system": "AP (Aminopeptidase)", "test": "Gene expression (RT-PCR), AP", "conditions": "at hatch; b175: relative to the 18 MΩ M2O and 5% inulin control groups; b192: comparator not stated; p<0.05", "experimental": "as §1, §2, §3, §4"}, "Liver Ferritin": {"system": "Liver Ferritin", "test": "Liver ferritin", "conditions": "intra-amniotic 1 mL/egg on day 17, at hatch, mean ± SEM, n=5", "experimental": "as §5"}, "SI (Sucrose isomaltase)": {"system": "SI (Sucrose isomaltase)", "test": "Gene expression (RT-PCR), SI", "conditions": "at hatch; b175: compared with the no injection and 5% inulin control groups; b192: comparator not stated; p<0.05", "experimental": "as §1, §2, §3, §4"}, "[2]": {"test": "Fe and Zn content in the serum and liver samples", "experimental": "as §5\nThe serum (50 μL) and liver (0.5 g) samples were mixed with 3.0 mL of a 60:40 (v/v) solution of nitric acid (HNO3) and perchloric acid (HClO4) and incubated overnight. After this, the samples were heated for 2 hours at 120° C. and added to 0.25 mL of 40 μg/g yttrium (internal standard), and the block temperature was increased to 145° C. for 2 h and then 190° C. for 10 min. At the end of these procedures, the samples were cooled, diluted to a total volume of 20 mL, mixed and transferred into autosampler tubes for analysis (inductively coupled plasma atomic emission spectrometer) (Thermo, Franklin, MA, USA)."}, "[3]": {"conditions": "duodenum, intra-amniotic 1 mL/egg on day 17, at hatch, mean ± SEM, n=5"}, "[4]": {"conditions": "small intestine, intra-amniotic 1 mL/egg on day 17, at hatch, mean ± SEM, n=5"}, "[5]": {"conditions": "liver, intra-amniotic 1 mL/egg on day 17, at hatch, mean ± SEM, n=8"}, "[6]": {"conditions": "serum, intra-amniotic 1 mL/egg on day 17, at hatch, mean ± SEM, n=8"}}, "note": "Marks after values point to notes of the source that are not given here.", "data": [{"smiles": "Oc1ccc(C=Cc2cc(O)cc(O)c2)cc1", "note": "[5% Resveratrol, Resveratrol]", "values": [{"measurement": "IL-1β gene expression", "setting": "IL-1β", "result": "downregulated"}, {"measurement": "Depth of Crypts (μm)", "setting": "[1]; [3]", "result": "63.73 ± 1.20^a μm"}, {"measurement": "Mucus Layer Width (μm)", "setting": "[1]; [3]", "result": "4.80 ± 0.13^d μm"}, {"measurement": "Villus Diameter (μm)", "setting": "[1]; [3]", "result": "54.47 ± 0.70^b μm"}, {"measurement": "Villus Length (μm)", "setting": "[1]; [3]", "result": "294.92 ± 3.48^c μm"}, {"measurement": "Crypt Goblet Cell Number", "setting": "[1]; [4]", "result": "10.91 ± 0.21 ^b"}, {"measurement": "Goblet Cell Diameter (μM)", "setting": "[1]; [4]", "result": "7.94 ± 0.06 ^b μM"}, {"measurement": "Villus Goblet Cell Type Number, Acidic", "setting": "[1]; [4]", "result": "10.97 ± 0.23 ^a"}, {"measurement": "Villus Goblet Cell Type Number, Mixed", "setting": "[1]; [4]", "result": "0.17 ± 0.03 ^c"}, {"measurement": "Villus Goblet Cell Type Number, Neutral", "setting": "[1]; [4]", "result": "0.00 ± 0.00 ^b"}, {"measurement": "Duodenal villus diameter, comparison with controls", "setting": "[1]; versus the controls, p<0.05", "result": "significant increase"}, {"measurement": "Duodenal villus length, comparison with controls", "setting": "[1]; versus the controls, p<0.05", "result": "significant increase"}, {"measurement": "AP relative expression", "setting": "AP (Aminopeptidase)", "result": "downregulated"}, {"measurement": "Liver Ferritin (A.U.)", "setting": "Liver Ferritin", "result": "0.839 ± 0.393^bc A.U."}, {"measurement": "SI relative expression", "setting": "SI (Sucrose isomaltase)", "result": "down regulated"}, {"measurement": "Liver iron concentration vs inulin positive control", "setting": "[2]; compared with the inulin positive control", "result": "similar"}, {"measurement": "Liver Iron (μg/g)", "setting": "[2]; [5]", "result": "46.45 ± 4.71 ^a μg/g"}, {"measurement": "Liver Zinc (μg/g)", "setting": "[2]; [5]", "result": "16.72 ± 1.58 ^b μg/g"}, {"measurement": "Serum Iron (μg/g)", "setting": "[2]; [6]", "result": "2.42 ± 0.23 ^b μg/g"}, {"measurement": "Serum Zinc (μg/g)", "setting": "[2]; [6]", "result": "0.97 ± 0.12 ^bc μg/g"}]}]}
